# Measurements: US6066662A, “Hydroxylamine derivatives and their use as metalloproteinase inhibiting agents” (Hoffmann-La Roche Inc., priority 1994, dated 2000)
# pIC50: −log10 of the molar value.
# Target: T1, collagenase (Homo sapiens, UniProt P03956)
# T1 construct: endogenous in cells; host or cells: culture of human synovial fibroblasts (conditioned medium)
# T1 sequence (P03956 100-469): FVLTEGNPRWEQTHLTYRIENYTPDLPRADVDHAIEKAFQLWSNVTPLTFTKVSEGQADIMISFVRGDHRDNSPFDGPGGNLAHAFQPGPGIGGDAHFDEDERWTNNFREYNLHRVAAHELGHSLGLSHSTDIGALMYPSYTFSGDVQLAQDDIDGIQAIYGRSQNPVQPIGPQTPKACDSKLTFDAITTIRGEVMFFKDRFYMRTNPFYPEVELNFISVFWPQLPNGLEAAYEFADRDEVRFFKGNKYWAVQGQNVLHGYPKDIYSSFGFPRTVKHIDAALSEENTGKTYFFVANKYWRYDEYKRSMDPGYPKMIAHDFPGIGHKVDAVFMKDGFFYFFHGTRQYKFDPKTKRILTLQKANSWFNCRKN
# Assay: in vitro collagenase inhibiting activity (Test A)
# Type: biochemical
# Settings: collagenase from culture of human synovial fibroblasts, trypsin-activated; substrate 14C-acetylated collagen type I from rat tail tendons; microtitre plate assay
# Protocol: USA (1976), 73 945, following activation of the pro-collagenase in the conditioned medium by treatment with trypsin. Collagenase activity was measured using ^14 C-acetylated collagen type I from rat tail tendons as the substrate and employing the microtitre plate assay method of Johnson-Wint, B, Anal. Biochem. (1980), 104, 175. The IC50 is that concentration of a test compound in the enzyme digestion which reduces substrate cleavage and solubilization to 50% of that achieved by the enzyme alone.
row,Structure (SMILES),pIC50
1,"CNC(=O)[C@@H](NC(=O)C(CC(=O)NO)CC1CCC1)C(C)(C)C (single isomer, unassigned) [Example 1, N2-[3-cyclobutyl-2(R or S)-[(hydroxycarbamoyl)-methyl]propionyl]-N1,3-dimethyl-L-valinamide]",8.70
2,"CNC(=O)[C@@H](NC(=O)C(CC(=O)NO)CC1CC1)C(C)(C)C (single isomer, unassigned) [Example 2, N2-[3-cyclopropyl-2(R or S)-[(hydroxycarbamoyl)-methyl]propionyl]-N1,3-dimethyl-L-valinamide]",8.15
3,"CNC(=O)[C@@H](NC(=O)C(CC(=O)NO)CC1CCCC1)C(C)(C)C (single isomer, unassigned) [Example 3, N2-[3-cyclopentyl-2(R or S)-[(hydroxycarbamoyl)methyl]propionyl]-N1-3-dimethyl-L-valinamide]",8.30
4,"CNC(=O)[C@@H](NC(=O)[C@H](CC1CC1)C(CN1C(=O)N(C)C(C)(C)C1=O)C(=O)NO)C(C)(C)C (single isomer, unassigned) [Example 4, N2-[3-cyclopropyl-2(R)-[1(R or S)-(hydroxycarbamoyl)-2-(3,4,4-trimethyl-2,5-dioxo-1-imidazolidinyl)ethyl]propionyl]-N1,3-dimethyl-L-valinamide]",9.00
5,"CNC(=O)[C@@H](NC(=O)[C@H](CC1CCC1)C(CN1C(=O)N(C)C(C)(C)C1=O)C(=O)NO)C(C)(C)C (single isomer, unassigned) [Example 5, N2-[3-cyclobutyl-2(R)-[1(R or S)-(hydroxycarbamoyl)-2-(3,4,4-trimethyl-2,5-dioxo-1-imidazolidinyl)ethyl]propionyl]-N1,3-dimethyl-L-valinamide]",9.00
